From paper PMC3723855, “R31C GNRH1 Mutation and Congenital Hypogonadotropic Hypogonadism” (PLoS ONE, 2013)
“Also recorded” adds a separate entry of the source.

Key:
GnRH-R = experiment: Binding after pre-incubation and washout (covalent binding test), transfected COS-7 cells; set-up: species or system human; conditions: for covalent binding to receptor / subsequent binding of radiolabeled GnRH analog after pre-incubation and washing: WT GnRH 10^−8 M or R31C GnRH 10^−5 M, 2 h, 4°C, washed, 1 h, two experiments in triplicate
Experimental: (§1) Figure 2 Binding of WT and R31C GnRH to the GnRH receptor (GnRH-R). […] Data are the means of two experiments performed in triplicate.
We hypothesized that the cysteine in position 8 of the R31C GnRH might form disulfide bridges with cysteine residues in the receptor that are not in disulfide bridges. There are three such cysteines: cysteine 218, cysteine 279 and cysteine 317. In order to examine this possibility the effects of R31C GnRH pre-incubation on subsequent binding of a radio-labelled GnRH analog was examined. […] After treatment, the cells were extensively washed to remove all non-covalently bound peptide.

human GnRH-R [1] = molecular target: T1, human GnRH-R (Homo sapiens, UniProt P30968); experiment: Competition radioligand binding, 125I-[His5, D-Tyr6]-GnRH, transfected COS-7 cells
T1 sequence (P30968 1-328): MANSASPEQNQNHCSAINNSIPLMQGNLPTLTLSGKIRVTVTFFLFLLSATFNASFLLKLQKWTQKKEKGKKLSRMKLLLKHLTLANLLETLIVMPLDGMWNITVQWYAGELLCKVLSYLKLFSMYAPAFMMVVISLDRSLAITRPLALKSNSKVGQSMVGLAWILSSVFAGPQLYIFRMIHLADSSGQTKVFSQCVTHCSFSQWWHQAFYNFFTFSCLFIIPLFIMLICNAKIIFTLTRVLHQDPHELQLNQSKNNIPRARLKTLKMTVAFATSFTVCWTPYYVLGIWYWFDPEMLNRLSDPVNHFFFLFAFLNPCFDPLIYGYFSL
Experimental: as §1
The high affinity GnRH analog, [His^5, D-Tyr^6]-GnRH was radio-iodinated as previously described and purified using Sephadex chromatography. COS-7 cells were transiently transfected with a human GnRH-R DNA construct containing the human GnRH-RII carboxy-terminal to enhance expression using 6 µg of DNA and 30 µl FuGene HD (Promega Corporation, Madison, WI) per 10 cm dish and seeded into 12-well plates. […] Cells were washed with phosphate-buffered saline (2×1 ml) and lysed with NaOH (1 ml, 0.1 M). Cell-bound radioactivity was counted in a gamma counter and IC-50 values were calculated using Graphpad Prism (GraphPad Software Inc, San Diego).

LH (LbetaT2 cells) = experiment: LH secretion from LbetaT2 cells; assay type: cell-based, murine; conditions: for LH secretion versus WT GnRH: 10 nM R31C; for LH secretion over baseline: 10 nM, four experiments in duplicates, p<0.001 for WT, p = 0.042 for R31C
Experimental: Figure 7 Effects of treatments on lhb transcription and LH secretion. (A) LbetaT2 cells were starved overnight in serum-free DMEM and treated either by 10 nM WT, R31C, 10 nM WT +10 nM R31C peptides or vehicle. After five hours treatment cells were lysed for RNA extraction (Trizol®). Mouse lhb levels were analyzed by quantitative real time RT-qPCR. Values are expressed as individual ratios on 18S and represented as fold induction on vehicle as means ± SEM, **p<0.01. This experience was conducted n = 7 times in duplicates. (B) LH concentrations from LbetaT2 cells culture media. Cells were starved overnight in serum-free DMEM and incubated with 10 nM WT, 10 nM R31C, 10 nM WT +10 nM R31C, or vehicle for 5 hours. LH levels were measured by a combined rat/mouse RIA. Values are expressed as individual values and as means ± SEM, *p<0.05, ***p<0.001. The experiment was conducted four times and each sample was assayed in duplicates.
LbetaT2 cells were starved overnight in serum-free DMEM. The test day cells were exposed to 10 nM WT, R31C, the combination of 10 nM of each peptide or vehicle during five hours. Cell culture supernatants were collected and rapidly stored at −80°C. In cell culture media, LH concentration was measured using a previously described […] method with reagents supplied by Dr. Parlow (National Hormone and Peptide Program, Harbor-UCLA Medical Center, Torrance, CA). The minimum detectable LH concentration was 0.2 ng/ml, and the interassay coefficient of variation was less than 10%.

human GnRH-R [2] = molecular target: T1, human GnRH-R; experiment: Inositol phosphate (IP) accumulation in COS-7 cells transfected with human GnRH-R; assay type: cell-based; set-up: host or cells: COS-7
Experimental: Figure 6 IP accumulation. (A) COS-7 cells were transiently transfected with human GnRH-R expression vector and washed before the addition of myo-[2-^3H]Inositol. […] This experience was conducted three times each in triplicate. (B) Representation of individual values of EC-50 (calculated with Arcsin “P” root transformation) from n = 3 dose-response experiments.
COS-7 cells were transiently transfected by electroporation with human GnRH-R DNA (10 µg/15 cm dish), seeded into 12-well plates and radiolabelled by overnight incubation with myo-[3H]Inositol (0.5 µCi/well, American Radiolabeled Chemicals, St Louis, Mo). […] Incubations were stopped by removal of the medium and cells were lysed by addition of formic acid (1 ml, 10 mM). IP were extracted from cell lysates using Dowex 1 X8-200 chromatography and counted using a liquid scintillation counter (Pack ard). EC-50 and Emax values were calculated using Graphpad Prism (GraphPad Software Inc).

GNRHR = experiment: SRE-coupled luciferase after pulsatile exposure (four 90 min-spaced pulses), HEK293T cells; assay type: cell-based, human; conditions: 5 minutes each, 10 nM WT, 10 nM R31C or 10+10 nM, harvested five hours after last pulse, three experiments, n = 8 replicates
Experimental: Supplementary file pone.0069616.s002.ppt: Figure S2 Luciferase activity after pulsatile exposure. HEK293T cells were transiently transfected with GNRHR and SRE-coupled luciferase reporter gene, and then exposed to four 90 min-spaced pulses of 10 nM WT, 10 nM […] and 10+10 nM WT+[…]. After 5 minutes exposure to each ligand, cells were washed, and a subsequent pulse was given 90 minutes after. Five hours after the last pulse, cells were harvested for luciferase assay. Luciferase activity arbitrary units obtained by luminometry (a.l.u.) are shown as ratio on beta-galactosidase activity by optical density (used as transfection efficiency internal control). This experience was conducted three times (n = 8 replicates for each experiment). (PPT) Click here for additional data file.

[3] = R31C 10^−10 M to 10^−6 M in combination with WT GnRH at 10^−9 M

Row | SMILES | receptors occupied in pre-incubation (GnRH-R; R31C GnRH (10^−5 M in method and Fig. 2B), determined from the competition binding study) [%] | covalent binding to receptor / subsequent binding of radiolabeled GnRH analog after pre-incubation and washing (GnRH-R) | IC50 (human GnRH-R [1]; COS-7 transfected with human GnRH-R construct, 125I-[His5, D-Tyr6]-GnRH, 4 h, 4°C, two experiments performed in duplicate) [nM] | impact of added R31C GnRH on receptor binding with WT GnRH (human GnRH-R [1]; [3]) | activity in receptor binding (human GnRH-R [1]; R31C GnRH) | affinity for GnRH-R lower than that of WT GnRH (human GnRH-R [1]; R31C GnRH versus WT GnRH, COS-7 cells) | LH secretion versus WT GnRH (LH (LbetaT2 cells); 5 hours) | LH secretion versus WT GnRH (LH (LbetaT2 cells); 5 hours, listed as R31C peptide) | influence of R31C GnRH on stimulation of LH secretion by WT GnRH (LH (LbetaT2 cells); 10 nM WT + 10 nM R31C, 5 hours) | LH secretion over baseline (LH (LbetaT2 cells); 5 hours) | impact of added R31C GnRH on LH secretion with WT GnRH (LH (LbetaT2 cells); [3]) | maximal IP / agonism (human GnRH-R [2]; COS-7, R31C compared with WT) | EC50 (human GnRH-R [2]; COS-7, human GnRH-R, 1 hour, n = 3 dose-response experiments each in triplicate, Arcsin "P" root transformation, spread not defined, read-out: EC-50, IP accumulation (Fig. 6B)) [nM] | impact of added R31C GnRH on IP generation with WT GnRH (human GnRH-R [2]; [3]) | IP activity / potency (human GnRH-R [2]; R31C GnRH versus WT) | less potent than WT GnRH, IP accumulation (human GnRH-R [2]; R31C GnRH versus WT GnRH, p<0.01) [fold] | receptors occupied in pre-incubation (GnRH-R; WT GnRH at 10^−8 M) [%] | luciferase activity after pulsatile administration (GNRHR)
1 | CC(C)C[C@H](NC(=O)CNC(=O)[C@H](Cc1ccc(O)cc1)NC(=O)[C@H](CO)NC(=O)[C@H](Cc1c[nH]c2ccccc12)NC(=O)[C@H](Cc1c[nH]cn1)NC(=O)[C@@H]1CCC(=O)N1)C(=O)N[C@@H](CS)C(=O)N1CCC[C@H]1C(=O)NCC(N)=O [R31C GnRH] | 50 | does not form covalent disulfide bonds with the receptor | 850 | failed to have any impact | very low activity | more than 100 fold | very low activity | weaker responses | unable to influence | significantly stimulated LH secretion | failed to have any impact | full agonist; also recorded: maximal IP generated by both ligands was the same; also recorded: able to elicit the same maximal stimulation | 199 ± 75.9 | failed to have any impact | very low activity | > 100 |  | 
2 | CC(C)C[C@H](NC(=O)CNC(=O)[C@H](Cc1ccc(O)cc1)NC(=O)[C@H](CO)NC(=O)[C@H](Cc1c[nH]c2ccccc12)NC(=O)[C@H](Cc1c[nH]cn1)NC(=O)[C@@H]1CCC(=O)N1)C(=O)N[C@@H](CCCNC(=N)N)C(=O)N1CCC[C@H]1C(=O)NCC(N)=O [WT GnRH, reference compound] |  | can be fully removed from the receptor |  |  |  |  |  |  |  | strongly stimulated LH secretion over baseline |  |  |  |  |  |  | 50 | more potent than R31C GnRH
